Assay [1] deals with Bacillus cereus. Put plainly: Scanning electron microscopy of Bacillus cereus cells. It is filed as cell-based. The conditions noted are these: 62.5 µg/mL, 24 h. The method, then:
(§1) MCF-7 cells were cultured in complete DMEM containing either 15 µg/mL of 3-O-methylquercetin or 3,3′-di-O-methylquercetin and incubated for 48 h in humidified CO2 incubator. Negative control cells were incubated with complete DMEM and positive control cells received complete DMEM containing 40 nM vincristin sulfate. Treated cells were fixed with 3% glutaraldehyde for 1.5 h followed by osmium tetroxide (2% in PBS) for 1 h. After fixation, cells were washed in PBS and sequentially dehydrated using 30%, 70%, and 100% ethanol. Fixed cells were attached to a metal stubs and sputter coated with platinum by using Emitech K550X coating unit (Qourum Technology, West Sussex, UK). The coated specimens were viewed using Inspect F50/FEG scanning electron microscope (FEI, Eindhoven, The Netherlands) at accelerating voltage of 2–5 kV. Bacillus cereus cells treated with 3,3′-di-O-methylquercetin for 24 h were collected by centrifugation and washed with sodium phosphate buffer. Following that, the samples were fixed in 2.5% glutaraldehyde in 0.1 M phosphate buffer, pH 7.3, at 4 °C overnight, and postfixed in 1% osmium tetroxide in the phosphate buffer for 1 h at room temperature. Bacterial cells were dehydrated with sequential ethanol concentrations (30–100%) and coated for the observations under scanning electron microscope.

The test system of the next assay is Hep-2 cells. The experiment in a line: MTT antiproliferative activity assay, Hep-2. As to conditions: Homo sapiens, HEp-2; MTT, 48 h treatment, average of three replicates; read-out: IC50 Hep-2. It is filed as cell-based. The method, then:
(§2) Hep-2 (larynx carcinoma, ATCC: CCL-23), MCF-7 (breast epithelial adenocarcinoma, ATCC: HTB-22), and Vero (African green monkey kidney, ATCC: CCL-81) cell lines were kindly provided by Dr. Mona Hassuneh (Department of Biological Sciences, University of Jordan). Cells were grown in Minimum Essential Medium Eagle (Gibco, Paisley UK) supplemented with 10% heat inactivated fetal bovine serum (Gibco, Paisley UK), 29 μg/mL L-glutamine, and 40 μg/mL gentamicin. Cells were incubated in a humidified atmosphere of 5% CO2 at 37 °C.
(§3) The antiproliferative activity of Inula viscosa compounds was measured using the MTT (3-(4,5-dimethylthiazol-2-yl)-2,5-diphenyltetrazolium bromide) assay (Promega, Madison, WI, USA). The assay detects the reduction of MTT by mitochondrial dehydrogenase to blue formazan product, which reflects the normal function of mitochondria and cell viability. Exponentially growing cells were washed and seeded at 17,000 cells/well for Hep-2 cell line and 11,000 cells/ well for MCF-7 cell line (in 200 μL of growth medium) in 96 well microplates (Nunc, Roskilde, Denmark). After 24 h incubation, a partial monolayer was formed then the media was removed and 200 μL of the medium containing the compound (initially dissolved in DMSO) were added and re-incubated for 48 h. Then 100 μL of the medium were aspirated and 15 μL of the MTT solution were added to the remaining medium (100 μL) in each well. After 4 h contact with the MTT solution, blue crystals were formed. One hundred μL of the stop solution were added and incubated further for 1 h.
(§4) Reduced MTT was assayed at 550 nm using a microplate reader (Biotek, Winooski, VT, USA). Control groups received the same amount of DMSO (0.1%).Untreated cells were used as a negative control while, cells treated with vincristine sulfate were used as a positive control. Eight concentrations (150, 100, 50, 20, 10, 5, 2, and 1 μg/mL) were prepared from each compound and tested against the three cell lines. IC50 values were calculated as the concentrations that show 50% inhibition of proliferation on any tested cell line. Stock solutions of the compounds were dissolved in (DMSO) then diluted with the medium and sterilized using 0.2 μm membrane filters. The toxicity of DMSO was determined and the final dilution of compounds used for treating the cells contained not more than 0.1% (non toxic concentration) DMSO. IC50 values were reported as the average of three replicates. The antiproliferative effect of the tested compounds was determined by comparing the optical density of the treated cells against the optical density of the control (cells treated with media containing 0.1% DMSO).
On the technique in general: Tetrazolium dyes change colour on reduction, which living cells bring about.

A further assay deals with Vero cells. Put plainly: MTT antiproliferative activity assay, Vero. It is filed as cell-based, African green monkey. As to conditions: Chlorocebus sabaeus, Vero; MTT, 48 h treatment, average of three replicates; read-out: IC50 Vero. As to the method: as §2, §3, §4
A further assay deals with Escherichia coli. Put plainly: Microtiter plate dilution MIC, E. coli. The assay is classed as cell-based. The conditions noted are these: Escherichia coli, ATCC10798; ATCC 10798, 24 h, 100% inhibition; read-out: Minimum inhibitory concentration (MIC) E.c. The method, then:
(§5) The microbial strains used in this study were Escherichia coli (ATCC 10798), Salmonella typhimurium (ATCC14028), Methicillin resistant Staphylococcus aureus (MRSA, Clinical isolate), Bacillus cereus (Toxigenic strain TS), and Candida albicans (ATCC 90028). Bacterial strains were stocked onto nutrient agar slant at 4 °C, and Candida albicans was stocked onto malt agar slant at 4 °C.
(§6) The microtiter plate dilution method was used to determine the MIC (minimum inhibitory concentration) of compounds under study. Sterile 96-well microplates (Nunc) were used for the assay. Stock compounds were dissolved in DMSO so that the final concentrations in micro wells were less than 1% DMSO and solvent controls were run at these concentrations. Positive controls of penicillin G and tetracycline (Oxoid, Hampshire, UK) were prepared at the following concentrations 2, 4, 8, 16, 31, 62.5, 125, and 250 μg/mL. 1% DMSO was used as a solvent control. Compounds were diluted to twice the desired initial test concentration (250 µg/mL) with Muller Hinton broth (MHB) (Oxoid). All wells, except the first were filled with MHB (50 μL). Compounds (100 μL) were added to the first well and serial two-fold dilutions were made down to the desired minimum concentration (2 μg/mL). An over-night culture of bacteria suspended in MHB was adjusted to turbidity equal to 0.5 McFarland standard. The plates were inoculated with bacterial suspension (50 μL/well) and incubated at 37 °C for 24 h. Then the turbidity was measured using micro-plate reader (Biotek) at 620 nm wavelength. The same procedure was used to determine the antifungal activity of compounds against Candida albicans. The medium used was malt extract broth. The yeast cells were suspended in 0.85% saline, with an optical density equivalent to 0.5 McFarland standard, and diluted 1:100 in malt extract broth to obtain the working concentration. After 24 h incubation with each compound, the turbidity was measured at 530 nm wavelength using a spectrophotometer (Biotek). Percentage inhibition for tested microorganisms was calculated using the following formula:
(§7) MIC was determined as the lowest concentration of the compound that causes complete inhibition (100%) of each microorganism.

The subject of assay [2] is Bacillus cereus. Put plainly: Microtiter plate dilution MIC, B. cereus. The conditions noted are these: Bacillus cereus; Toxigenic strain TS, 24 h, 100% inhibition; read-out: Minimum inhibitory concentration (MIC) B.c. It is filed as cell-based. The method, then: as §5, §6, §7
A further assay concerns MCF-7 cells. Put plainly: Scanning electron microscopy of MCF-7 cells. The assay is classed as cell-based, human. The conditions noted are these: 15 µg/mL compound (vincristin sulfate 40 nM), 48 h. As to the method: as §1

Values after ≈ are worked out from the molar mass of the structure shown. “Also recorded” adds a separate entry of the source.

Experimental findings from paper PMC6268972, “Antiproliferative, Antimicrobial and Apoptosis Inducing Effects of Compounds Isolated from Inula viscosa” (Molecules, 2012) are described below.

The term IC50 denotes the point on the concentration scale where inhibition reaches its midpoint. Regarding `COc1cc(-c2oc3cc(O)cc(O)c3c(=O)c2OC)ccc1O` [3,3′-di-O-Methylquercetin], the “Morphological changes of bacterial cells (scanning electron microscopy)” value with Bacillus cereus [1] is “induced damage in bacterial cell walls and cytoplasmic membranes”; in the assay with Bacillus cereus [1] (listed as 3,3′-di-O-methylquercetin) it was “Damages on both the bacterial cell wall and the cytoplasmic membrane; also recorded: Leakage of intracellular constituents”. Further, the results for the IC50 in the assay with Hep-2 cells and in the assay with Vero cells were 28 ± 1.13 µg/mL (≈ 84.8 µM) and greater than 150 µg/mL, respectively. For the same molecule, the MIC in the assay on Escherichia coli is greater than 250 µg/mL; in the assay on Bacillus cereus [2] it was 62.5 µg/mL (≈ 189 µM). Also, the “Cytomorphological alterations (scanning electron microscopy)” value with MCF-7 cells was “cell shrinkage, membrane blebbing, loss of contact with neighboring cells, and formation of apoptotic bodies”.
